Reference: ChEMBL document CHEMBL1138949, “Bromine- and iodine-substituted 16alpha,17alpha-dioxolane progestins for breast tumor imaging and radiotherapy: synthesis and receptor binding affinity” (J Med Chem, 2006)

What follows are compounds tested against T1, Progesterone receptor (Homo sapiens) (UniProt P06401) (assay: Inhibition of [3H]R5020 binding to human recombinant progesterone receptor relative to R5020).
T1 sequence (whole entry): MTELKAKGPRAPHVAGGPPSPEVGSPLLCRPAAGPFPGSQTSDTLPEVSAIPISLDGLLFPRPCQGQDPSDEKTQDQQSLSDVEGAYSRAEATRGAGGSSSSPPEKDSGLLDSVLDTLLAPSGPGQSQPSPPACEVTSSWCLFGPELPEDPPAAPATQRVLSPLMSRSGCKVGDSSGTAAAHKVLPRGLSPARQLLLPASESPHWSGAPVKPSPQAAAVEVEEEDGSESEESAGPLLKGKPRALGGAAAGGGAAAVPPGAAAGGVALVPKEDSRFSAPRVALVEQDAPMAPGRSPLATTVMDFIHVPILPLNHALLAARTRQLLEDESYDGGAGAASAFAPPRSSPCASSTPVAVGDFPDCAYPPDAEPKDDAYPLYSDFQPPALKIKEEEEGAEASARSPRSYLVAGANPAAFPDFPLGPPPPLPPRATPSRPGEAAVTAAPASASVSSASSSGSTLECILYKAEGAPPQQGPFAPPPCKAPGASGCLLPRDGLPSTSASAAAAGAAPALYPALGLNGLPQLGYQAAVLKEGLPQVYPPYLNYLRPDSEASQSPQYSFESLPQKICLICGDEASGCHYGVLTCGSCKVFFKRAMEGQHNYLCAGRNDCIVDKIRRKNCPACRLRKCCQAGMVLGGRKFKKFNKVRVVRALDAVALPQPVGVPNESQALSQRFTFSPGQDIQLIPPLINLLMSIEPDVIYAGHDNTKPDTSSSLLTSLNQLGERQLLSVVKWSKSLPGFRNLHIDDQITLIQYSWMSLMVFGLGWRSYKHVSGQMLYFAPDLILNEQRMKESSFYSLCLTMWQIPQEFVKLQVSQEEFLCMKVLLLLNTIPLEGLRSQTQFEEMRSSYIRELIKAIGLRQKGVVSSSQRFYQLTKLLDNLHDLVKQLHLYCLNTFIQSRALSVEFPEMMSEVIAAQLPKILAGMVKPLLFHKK

Compound | relative binding affinity (RBA)
C[C@]12CC[C@H]3[C@@H](CCC4=CC(=O)CC[C@@H]43)[C@@H]1C[C@H]1O[C@H](c3ccc(Br)cc3)O[C@]12C(=O)CO | 0.41
C[C@]12CC[C@H]3[C@@H](CCC4=CC(=O)CC[C@@H]43)[C@@H]1C[C@H]1O[C@H](c3ccco3)O[C@]12C(=O)CF | 5
CC(=O)CC(=O)[C@@]12O[C@@H](c3ccc(Br)o3)O[C@@H]1C[C@H]1[C@@H]3CCC4=CC(=O)CC[C@@H]4[C@H]3CC[C@@]12C | 1.4
CC(=O)CC(=O)[C@@]12O[C@H](c3ccc(Br)o3)O[C@@H]1C[C@H]1[C@@H]3CCC4=CC(=O)CC[C@@H]4[C@H]3CC[C@@]12C | 7.1
C[C@]12CC[C@H]3[C@@H](CCC4=CC(=O)CC[C@@H]43)[C@@H]1C[C@H]1O[C@@H](c3ccc(Br)s3)O[C@]12C(=O)CO | 5.2
C[C@]12CC[C@H]3[C@@H](CCC4=CC(=O)CC[C@@H]43)[C@@H]1C[C@H]1O[C@H](c3ccc(Br)cc3)O[C@]12C(=O)CF | 4.7
C[C@]12CC[C@H]3[C@@H](CCC4=CC(=O)CC[C@@H]43)[C@@H]1C[C@H]1O[C@@H](c3ccc(Br)cc3)O[C@]12C(=O)CO | 23
C[C@]12CC[C@H]3[C@@H](CCC4=CC(=O)CC[C@@H]43)[C@@H]1C[C@H]1O[C@H](c3ccc(I)cc3)O[C@]12C(=O)CO | 1.8
C[C@]12CC[C@H]3[C@@H](CCC4=CC(=O)CC[C@@H]43)[C@@H]1C[C@H]1O[C@@H](c3ccc(I)cc3)O[C@]12C(=O)CF | 6.4
C[C@]12CC[C@H]3[C@@H](CCC4=CC(=O)CC[C@@H]43)[C@@H]1C[C@H]1O[C@H](c3ccc(Br)s3)O[C@]12C(=O)CO | 1.7
C[C@]12CC[C@H]3[C@@H](CCC4=CC(=O)CC[C@@H]43)[C@@H]1C[C@H]1O[C@H](c3ccc(I)cc3)O[C@]12C(=O)CF | 34
C[C@]12CC[C@H]3[C@@H](CCC4=CC(=O)CC[C@@H]43)[C@@H]1C[C@H]1O[C@@H](c3ccc(Br)cc3)O[C@]12C(=O)CF | 3.9
C[C@]12CC[C@H]3[C@@H](CCC4=CC(=O)CC[C@@H]43)[C@@H]1C[C@H]1O[C@@H](c3ccco3)O[C@]12C(=O)CF | 180
C[C@]12CC[C@H]3[C@@H](CCC4=CC(=O)CC[C@@H]43)[C@@H]1C[C@H]1O[C@@H](c3ccc(I)cc3)O[C@]12C(=O)CO | 0.81

The remaining lines, values ahead:

relative binding affinity (RBA) | Compound
3.2 | C[C@]12CC[C@H]3[C@@H](CCC4=CC(=O)CC[C@@H]43)[C@@H]1C[C@H]1O[C@@H](c3ccc(I)s3)O[C@]12C(=O)CO
2.3 | C[C@]12CC[C@H]3[C@@H](CCC4=CC(=O)CC[C@@H]43)[C@@H]1C[C@H]1O[C@H](c3ccc(Br)o3)O[C@]12C(=O)CO
53 | C[C@]12CC[C@H]3[C@@H](CCC4=CC(=O)CC[C@@H]43)[C@@H]1C[C@H]1O[C@@H](c3ccco3)O[C@]12C(=O)CO
65 | C[C@]12CC[C@H]3[C@@H](CCC4=CC(=O)CC[C@@H]43)[C@@H]1C[C@H]1O[C@@H](c3ccc(Br)o3)O[C@]12C(=O)CO
0.95 | C[C@]12CC[C@H]3[C@@H](CCC4=CC(=O)CC[C@@H]43)[C@@H]1C[C@H]1O[C@H](c3ccc(I)s3)O[C@]12C(=O)CO
2.6 | C[C@]12CC[C@H]3[C@@H](CCC4=CC(=O)CC[C@@H]43)[C@@H]1C[C@H]1O[C@H](c3ccc(I)o3)O[C@]12C(=O)CO
40 | C[C@]12CC[C@H]3[C@@H](CCC4=CC(=O)CC[C@@H]43)[C@@H]1C[C@H]1O[C@@H](c3ccc(I)o3)O[C@]12C(=O)CF
23 | C[C@]12CC[C@H]3[C@@H](CCC4=CC(=O)CC[C@@H]43)[C@@H]1C[C@H]1O[C@@H](c3ccc(I)o3)O[C@]12C(=O)CO
24 | C[C@]12CC[C@H]3[C@@H](CCC4=CC(=O)CC[C@@H]43)[C@@H]1C[C@H]1O[C@@H](c3ccc(Br)o3)O[C@]12C(=O)CF
9 | C[C@]12CC[C@H]3[C@@H](CCC4=CC(=O)CC[C@@H]43)[C@@H]1C[C@H]1O[C@H](c3ccc(I)o3)O[C@]12C(=O)CF
2.4 | C[C@]12CC[C@H]3[C@@H](CCC4=CC(=O)CC[C@@H]43)[C@@H]1C[C@H]1O[C@H](c3ccco3)O[C@]12C(=O)CO
4.4 | C[C@]12CC[C@H]3[C@@H](CCC4=CC(=O)CC[C@@H]43)[C@@H]1C[C@H]1O[C@H](c3ccc(Br)o3)O[C@]12C(=O)CF

Each compound was assayed against T2, Progesterone receptor (Rattus norvegicus) (UniProt Q63449) (assay: Inhibition of [3H]R5020 binding to rat uterine progesterone receptor relative to R5020).
T2 sequence (whole entry): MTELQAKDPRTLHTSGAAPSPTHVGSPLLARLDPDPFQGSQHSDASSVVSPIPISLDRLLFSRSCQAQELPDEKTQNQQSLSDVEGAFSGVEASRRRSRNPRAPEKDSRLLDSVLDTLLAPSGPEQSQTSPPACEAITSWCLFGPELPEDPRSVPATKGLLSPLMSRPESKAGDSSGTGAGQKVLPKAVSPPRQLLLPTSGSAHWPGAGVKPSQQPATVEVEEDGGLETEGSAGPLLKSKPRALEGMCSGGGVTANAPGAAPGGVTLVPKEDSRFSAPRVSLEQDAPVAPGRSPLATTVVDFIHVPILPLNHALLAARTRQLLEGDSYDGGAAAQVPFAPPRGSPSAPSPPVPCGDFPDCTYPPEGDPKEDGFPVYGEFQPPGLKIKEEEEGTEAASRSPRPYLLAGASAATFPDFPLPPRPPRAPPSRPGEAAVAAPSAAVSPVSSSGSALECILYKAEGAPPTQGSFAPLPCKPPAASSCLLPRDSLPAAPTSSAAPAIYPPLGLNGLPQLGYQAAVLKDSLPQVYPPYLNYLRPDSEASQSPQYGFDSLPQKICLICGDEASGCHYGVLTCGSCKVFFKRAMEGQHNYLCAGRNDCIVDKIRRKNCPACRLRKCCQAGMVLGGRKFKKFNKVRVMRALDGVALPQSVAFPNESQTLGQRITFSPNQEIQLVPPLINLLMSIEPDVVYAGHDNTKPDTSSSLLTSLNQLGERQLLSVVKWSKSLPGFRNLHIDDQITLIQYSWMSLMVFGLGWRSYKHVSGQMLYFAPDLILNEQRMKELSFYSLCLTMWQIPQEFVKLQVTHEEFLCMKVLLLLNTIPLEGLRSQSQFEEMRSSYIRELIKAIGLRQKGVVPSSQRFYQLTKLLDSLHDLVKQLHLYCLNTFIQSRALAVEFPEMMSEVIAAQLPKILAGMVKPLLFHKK

Compound | relative binding affinity (RBA)
C[C@]12CC[C@H]3[C@@H](CCC4=CC(=O)CC[C@@H]43)[C@@H]1C[C@H]1O[C@H](c3ccco3)O[C@]12C(=O)CF | 11
C[C@]12CC[C@H]3[C@@H](CCC4=CC(=O)CC[C@@H]43)[C@@H]1C[C@H]1O[C@@H](c3ccco3)O[C@]12C(=O)CF | 190

Now from value to compound:

relative binding affinity (RBA) | Compound
55 | C[C@]12CC[C@H]3[C@@H](CCC4=CC(=O)CC[C@@H]43)[C@@H]1C[C@H]1O[C@@H](c3ccco3)O[C@]12C(=O)CO
2.5 | C[C@]12CC[C@H]3[C@@H](CCC4=CC(=O)CC[C@@H]43)[C@@H]1C[C@H]1O[C@H](c3ccco3)O[C@]12C(=O)CO
